{"source": "patent US20220142955A1", "about": "“METHODS OF TREATING ORGANIC ACIDEMIAS” (HemoShear Therapeutics, Inc., priority 2019, published 2022)", "key": {"MMA primary hepatocytes": {"system": "MMA primary hepatocytes", "experiment": "HemoShear Technology, MMA primary hepatocytes (Examples 10, 11)", "assay_type": "cell-based, human", "settings": "for EC50 / EC90: Homo sapiens, Hepatocyte"}, "PA primary hepatocytes": {"system": "PA primary hepatocytes", "experiment": "Static cell culture, low/high propiogenic media, PA primary hepatocytes", "assay_type": "cell-based, human", "settings": "for EC50 / EC90: Homo sapiens, Hepatocyte", "description": "Unlike the HemoShear Technology, this assay is carried out without constant perfusion, utilizing cell culture media that was customized to mimic plasma levels of propiogenic sources (amino acids and ketoacids) in PA and MMA patients during periods of relative metabolic stability (low propiogenic media) and acute metabolic crisis (high propiogenic media). PA and MMA pHeps, in static cell culture, were treated with Compound 5 (concentrations ranging from 0.1 μM to 100 μM) for 30 minutes in low propiogenic media, followed by either a continuation of low propiogenic media or a switch to the high propiogenic media for 1 hour. The media used during the 1-hour incubation contained propiogenic SIL amino acids and ketoacids which are metabolized into labeled P-CoA and M-CoA in the cells. The SIL amino acids and ketoacids were a mix of ^13C and MeD8 labelling, but their catabolism produced a SIL P-CoA (denoted as ^13C-P-CoA for simplicity) with the same mass, independent of the type of SIL (also true for ^13C-M-CoA)."}, "[1]": {"settings": "MMA pHeps, HemoShear, average ± SD"}, "[2]": {"settings": "PA pHeps, high propiogenic, static culture"}}, "note": "Where two headings read alike, the source gives them in different places.", "data": [{"smiles": "CCC(C)(C)C(=O)O", "note": "[Compound 5, 2,2-dimethybutanoic acid]", "values": [{"measurement": "EC50", "setting": "MMA primary hepatocytes; MMA donor 1, representative data (FIG. 7A), read-out: P-CoA reduction EC50", "value": 3900, "unit": "nM"}, {"measurement": "EC50", "setting": "MMA primary hepatocytes; MMA donor 1, representative data (FIG. 7B), read-out: M-CoA reduction EC50", "value": 3250, "unit": "nM"}, {"measurement": "EC50", "setting": "MMA primary hepatocytes; MMA donor 1, representative data (FIG. 7E), read-out: MCA reduction EC50", "value": 1660, "unit": "nM"}, {"measurement": "EC50", "setting": "MMA primary hepatocytes; MMA pHeps, HemoShear, average ± SD, read-out: 2-Methylcitric acid (2MC) EC50", "value": "800 ± 500", "unit": "nM"}, {"measurement": "EC90", "setting": "MMA primary hepatocytes; MMA pHeps, HemoShear, average ± SD, read-out: 2-Methylcitric acid (2MC) EC90", "value": "7.5 ± 6.4", "unit": "µM"}, {"measurement": "EC50", "setting": "MMA primary hepatocytes; MMA pHeps, HemoShear, average ± SD, read-out: 12C-Acetyl-Camitine (C2) EC50", "value": "4300 ± 2200", "unit": "nM"}, {"measurement": "EC90", "setting": "MMA primary hepatocytes; MMA pHeps, HemoShear, average ± SD, read-out: 12C-Acetyl-Camitine (C2) EC90", "value": "31.3 ± 26.9", "unit": "µM"}, {"measurement": "EC50", "setting": "MMA primary hepatocytes; MMA pHeps, HemoShear, average ± SD, read-out: 12C-Methylmalonyl-CoA (M-CoA) EC50", "value": "2000 ± 1200", "unit": "nM"}, {"measurement": "EC90", "setting": "MMA primary hepatocytes; MMA pHeps, HemoShear, average ± SD, read-out: 12C-Methylmalonyl-CoA (M-CoA) EC90", "value": "12.6 ± 12.9", "unit": "µM"}, {"measurement": "EC50", "setting": "MMA primary hepatocytes; MMA pHeps, HemoShear, average ± SD, read-out: 12C-Propionyl-Carnitine (C3) EC50", "value": "1400 ± 500", "unit": "nM"}, {"measurement": "EC90", "setting": "MMA primary hepatocytes; MMA pHeps, HemoShear, average ± SD, read-out: 12C-Propionyl-Carnitine (C3) EC90", "value": "18.1 ± 16.2", "unit": "µM"}, {"measurement": "EC50", "setting": "MMA primary hepatocytes; MMA pHeps, HemoShear, average ± SD, read-out: 12C-Propionyl-CoA (P-CoA) EC50", "value": "2100 ± 1500", "unit": "nM"}, {"measurement": "EC90", "setting": "MMA primary hepatocytes; MMA pHeps, HemoShear, average ± SD, read-out: 12C-Propionyl-CoA (P-CoA) EC90", "value": "36.1 ± 30.1", "unit": "µM"}, {"measurement": "EC50", "setting": "MMA primary hepatocytes; MMA pHeps, HemoShear, read-out: CoASH EC50", "value": "14100 ± 8400", "unit": "nM"}, {"measurement": "EC90", "setting": "MMA primary hepatocytes; MMA pHeps, HemoShear, read-out: CoASH EC90", "value": "23.8 ± 20.2", "unit": "µM"}, {"measurement": "EC50", "setting": "MMA primary hepatocytes; MMA pHeps, HemoShear, read-out: Compound 5-CoA (formation) EC50", "value": "3500 ± 1700", "unit": "nM"}, {"measurement": "EC90", "setting": "MMA primary hepatocytes; MMA pHeps, HemoShear, read-out: Compound 5-CoA (formation) EC90", "value": "52.4 ± 45.6", "unit": "µM"}, {"measurement": "12C-Acetyl-CoA Percent change at 30 μM", "setting": "MMA primary hepatocytes; MMA pHeps, HemoShear", "value": "13.5 ± 24.9", "unit": "%"}, {"measurement": "CoASH Percent change at 30 μM", "setting": "MMA primary hepatocytes; MMA pHeps, HemoShear", "value": "−22.3 ± 22.3", "unit": "%"}, {"measurement": "average reduction in the C3/C2 ratio", "setting": "MMA primary hepatocytes; MMA pHeps, HemoShear, at 30 μM", "value": "−2.2±0.2", "unit": "log 2 fold change"}, {"measurement": "2-Methylcitric acid (2MC) % change at 30 μM", "setting": "MMA primary hepatocytes; [1]", "value": "−66.7±14.9", "unit": "%"}, {"measurement": "12C-Acetyl-Camitine (C2) % change at 30 μM", "setting": "MMA primary hepatocytes; [1]", "value": "44.6 ± 26.8", "unit": "%"}, {"measurement": "12C-Methylmalonyl-CoA (M-CoA) % change at 30 μM", "setting": "MMA primary hepatocytes; [1]", "value": "−55±6.6", "unit": "%"}, {"measurement": "12C-Propionyl-Carnitine (C3) % change at 30 μM", "setting": "MMA primary hepatocytes; [1]", "value": "−65.9±10.7", "unit": "%"}, {"measurement": "12C-Propionyl-CoA (P-CoA) % change at 30 μM", "setting": "MMA primary hepatocytes; [1]", "value": "−74.2±11.6", "unit": "%"}, {"measurement": "EC50", "setting": "PA primary hepatocytes; PA pHeps, high propiogenic media, static, read-out: 13C-Propionyl-CoA (13C-P-CoA) EC50", "value": "1700 ± 1000", "unit": "nM"}, {"measurement": "EC90", "setting": "PA primary hepatocytes; PA pHeps, high propiogenic media, static, read-out: 13C-Propionyl-CoA (13C-P-CoA) EC90", "value": "11.6 ± 7.4", "unit": "µM"}, {"measurement": "EC50", "setting": "PA primary hepatocytes; PA pHeps, high propiogenic, static culture, read-out: 12C-Acetyl-CoA EC50", "value": "700 ± 500", "unit": "nM"}, {"measurement": "EC90", "setting": "PA primary hepatocytes; PA pHeps, high propiogenic, static culture, read-out: 12C-Acetyl-CoA EC90", "value": "1.9 ± 1.3", "unit": "µM"}, {"measurement": "EC50", "setting": "PA primary hepatocytes; PA pHeps, high propiogenic, static culture, read-out: CoASH EC50", "value": "2100 ± 1600", "unit": "nM"}, {"measurement": "EC90", "setting": "PA primary hepatocytes; PA pHeps, high propiogenic, static culture, read-out: CoASH EC90", "value": "11.1 ± 13", "unit": "µM"}, {"measurement": "EC50", "setting": "PA primary hepatocytes; PA pHeps, high propiogenic, static culture, read-out: Compound 5-CoA (formation) EC50", "value": "2600 ± 1600", "unit": "nM"}, {"measurement": "EC90", "setting": "PA primary hepatocytes; PA pHeps, high propiogenic, static culture, read-out: Compound 5-CoA (formation) EC90", "value": "42 ± 45.8", "unit": "µM"}, {"measurement": "EC50", "setting": "PA primary hepatocytes; PA pHeps, low propiogenic media, static, read-out: 13C-Propionyl-CoA (13C-P-CoA) EC50", "value": "2000 ± 1800", "unit": "nM"}, {"measurement": "EC90", "setting": "PA primary hepatocytes; PA pHeps, low propiogenic media, static, read-out: 13C-Propionyl-CoA (13C-P-CoA) EC90", "value": "6.9 ± 5.4", "unit": "µM"}, {"measurement": "EC50", "setting": "PA primary hepatocytes; PA pHeps, low propiogenic, static culture, read-out: 12C-Acetyl-CoA EC50", "value": "400 ± 200", "unit": "nM"}, {"measurement": "EC90", "setting": "PA primary hepatocytes; PA pHeps, low propiogenic, static culture, read-out: 12C-Acetyl-CoA EC90", "value": "1.6 ± 1.3", "unit": "µM"}, {"measurement": "EC50", "setting": "PA primary hepatocytes; PA pHeps, low propiogenic, static culture, read-out: CoASH EC50", "value": "900 ± 300", "unit": "nM"}, {"measurement": "EC90", "setting": "PA primary hepatocytes; PA pHeps, low propiogenic, static culture, read-out: CoASH EC90", "value": "9.1 ± 5.8", "unit": "µM"}, {"measurement": "EC50", "setting": "PA primary hepatocytes; PA pHeps, low propiogenic, static culture, read-out: Compound 5-CoA (formation) EC50", "value": "1400 ± 600", "unit": "nM"}, {"measurement": "EC90", "setting": "PA primary hepatocytes; PA pHeps, low propiogenic, static culture, read-out: Compound 5-CoA (formation) EC90", "value": "15.3 ± 11.3", "unit": "µM"}, {"measurement": "EC90", "setting": "PA primary hepatocytes; static cell culture, PA and MMA pHeps, low and high propiogenic media together, read-out: average EC90 value across all biomarkers", "value": "11 ± 9.6", "unit": "µM"}, {"measurement": "13C-Propionyl-CoA (13C-P-CoA) % change at 30 μM", "setting": "PA primary hepatocytes; PA pHeps, high propiogenic media, static", "value": "−85.3±9.1", "unit": "%"}, {"measurement": "12C-Acetyl-CoA Percent change (30 μM)", "setting": "PA primary hepatocytes; [2]", "value": "−27 ± 3.4", "unit": "%"}, {"measurement": "CoASH Percent change (30 μM)", "setting": "PA primary hepatocytes; [2]", "value": "−48 ± 14.3", "unit": "%"}]}]}
